Data set [1] deals with HBV DNA replication in HepG2.2.15 cells. The data set is described as follows: In vitro anti-HBV activity test (quantitative assay of intracellular HBV DNA), HepG2.2.15 cells, quantitative PCR. It is filed as cell-based, hepatitis B virus (HBV). Conditions: HBV DNA by quantitative PCR; for EC50: compound treatment Day 2 to Day 8; for Emax: read-out: Emax (effect value of the compound to maximally inhibit HBV DNA replication). On the procedure:
In vitro anti-HBV activity test of the compound of the present invention (quantitative assay of intracellular HBV DNA)
HepG2.2.15 cell is a stable expression cell line that has integrated HBV genome.
Virus particles containing HBV DNA can be synthesized by replication, transcription and encapsidation in the cells, and then secreted. In this study, the quantitative analysis of HBV DNA produced by HepG2.2.15 in vitro proliferation was carried out by quantitative PCR method, thereby determining the activity of the compound of the present invention on inhibiting the HBV DNA replication by inhibiting the assembly of HBV capsid protein.
HepG2.2.15 cells were cultured in DMEM/high glucose medium (10% FBS, […] G418) and passaged every three days. On the day of the experiment, a cell suspension was prepared with fresh cell culture medium, and incubated in a 96-well plate (Corning, #3599) at 40,000 cells/well, at 5% carbon dioxide, 37° C. On Day 2, the compound was dissolved in pure DMSO at a concentration of 20 mM, and then the first concentration of 2 mM was formulated with DMSO, and diluted in 4-fold concentration gradient to 8 concentrations. A control well was added with 90 μl of DMSO. The compound solution was diluted 200-fold with DMEM/high glucose medium. The cell culture plate inoculated on Day 1 was taken out. The medium in the wells was removed by a negative pressure suction device, and the formulated medium containing the compound at each concentration was added respectively to each well at 200 μl/well. The plate was incubated at 37° C. for 72 hours. On Day 5, the medium of the cultured cells was replaced with fresh medium containing the same compound in the same way as Day 2, and then the plate was incubated at 37° C. for 72 hours. On Day 8, the cell culture plate was taken out, centrifuged at 300 g for 3 minutes, and the culture supernatant was collected at 200 μl/well. HBV DNA was extracted from the cell culture supernatant with Qiagen automatic DNA extraction device, and the specific method referred to the instructions of the reagents and instruments. Finally, the extracted DNA was eluted with DNA elution buffer at 100 μl/well. The extracted DNA was subjected to quantitative PCR analysis of HBV DNA using Hepatitis B virus nucleic acid quantitative detection kit (Triplex International Biosciences Co., Ltd.), and the specific method referred to the instruction of the kit. The quantitative standard curve was obtained with the standard sample provided in the kit, and the experiments were performed in parallel. Quantitative conversion of each sample was carried out according to the standard curve. Finally, the EC50 value of the compound was calculated with Graphpad Prism software according to each concentration of the compound and the corresponding DNA value.
The in vitro activity of the compound of the present invention on inhibiting the HBV DNA replication by inhibiting the assembly of HBV capsid protein was determined by the above experiment.

The next data set deals with HepG2 cells. The data set can be described thus: Effect on in vitro proliferation of HepG2 cells (CellTiter-Glo). The format is cell-based. On the procedure: (§1) Test Example 2. Effect of the Compound of the Present Invention on In Vitro Proliferation of HepG2 Cells
(§2) HepG2 cells in logarithmic growth phase were taken and digested with trypsin to prepare a cell suspension, which was incubated in a 96-well plate (transparent bottom white 96-well plate, PerkinElmer) at 6,000 cells/well, at 5% carbon dioxide, 37° C. for 16-20 hours. On Day 2, the compound was dissolved in pure DMSO at a concentration of 20 mM. The compound was diluted in 3-fold concentration gradient using an automatic pipetting station (Bravo), 8 concentration points for each compound, and the control well was DMSO. The compound formulated in DMSO at each concentration point was diluted 200-fold with EMEM (containing 10% FBS) medium. The cell culture plate inoculated on Day 1 was taken out. The medium in the wells was removed by a negative pressure suction device, and the formulated medium containing the compound at each concentration was added respectively to each well at 100 μl/well. The plate was incubated at 37° C. for 72 hours. On Day 5, the 96-well cell culture plate was taken out, and freshly formulated CellTiter Glo was added to each well at 100 μl/well. The 96-well plate was left to stand for 5-10 minutes, the bottom was then sealed with a white bottom sealing film (PerkinElmer). The plate was placed in the microplate reader to measure the luminescence signal. The CC50 value of the compound was calculated with Graphpad Prism software according to each concentration of the compound and the corresponding proliferation inhibition signal value.
(§3) The inhibition effect of the compound of the present invention on in vitro proliferation of HepG2 cells was determined by the above experiment.

A short description of data set [2]: Pharmacokinetics assay in rats after intragastrical administration (LC/MS/MS of plasma). It is filed as in vivo. To be noted: SD rats, 2 mg/kg; for Vd/F / AUC / bioavailability / CL/F / half-life / Cmax / MRT: both sexes, rat, plasma, po; for Vd/F: read-out: Apparent distribution volume Vz/F; for AUC: read-out: Area under curve AUC; for bioavailability: read-out: Bioavailability (%) F %; for CL/F: read-out: Clearance CLz/F; for half-life: read-out: Half-life T1/2 (converted); for Cmax: read-out: Plasma concentration Cmax; for MRT: read-out: Residence time MRT. The procedure:
Pharmacokinetics assay of the compound of the present invention
Rats were used as test animals. The drug concentration in plasma at different time points was determined by LC/MS/MS method after intragastrical administration of the compound of Example 1, the compound of Example 2, the compound of Example 4, the compound of Example 6, the compound of Example 7, the compound of Example 11, the compound of Example 39, the compound of Example 42, the compound of Example 44, the compound of Example 45 and the compound of Example 47 to rats. The pharmacokinetic behavior and property of the compound of the present invention were studied and evaluated in rats.
44 Healthy adult SD rats (half male and half female, 4 rats/group) were purchased from Shanghai Jiesijie Laboratory Animal Co., LTD, with Certificate No.: SCXK (Shanghai) 2013-0006.
A certain amount of the test compound was weighed, and added with 5% by volume of DMSO, 5% by volume of tween 80 and 90% by volume of normal saline to prepare a 0.2 mg/mL colorless, clear and transparent solution.
After an overnight fast, SD rats were administrated intragastrically with the test compound at an administration dose of 2.0 mg/kg and an administration volume of 10.0 mL/kg.
The rats were intragastrically administrated the compound of Example 1, the compound of Example 2, the compound of Example 4, the compound of Example 6, the compound of Example 7, the compound of Example 11, the compound of Example 39, the compound of Example 42, the compound of Example 44, the compound of Example 45 and the compound of Example 47. 0.1 ml of blood was taken from the orbit before administration and at 0.5, 1.0, 2.0, 4.0, 6.0, 8.0, 11.0 and 24.0 hours after administration. The samples were stored in heparinized tubes, and centrifuged for 10 minutes at 3500 rpm to separate the blood plasma. The plasma samples were stored at −20° C. The rats were fed two hours after administration.
The content of the test compound in the plasma of rats after intragastrical administration of the test compound at different concentrations was determined: 25 μL of rat plasma at each time after administration was taken, added with 40 μL of the internal standard solution of camptothecin (100 ng/mL) and 200 μL of acetonitrile, vortex-mixed for 5 minutes, and centrifuged for 10 minutes (4000 rpm). 0.2 μL of the supernatant was taken from the plasma samples for LC/MS/MS analysis.

The nature of data set [3]: Effect on in vitro proliferation of HepG2 cells (CellTiter-Glo). It is filed as cell-based. To be noted: human; HepG2 cells, 72 hours, CellTiter-Glo. The procedure: as §1, §2, §3

Where two headings read alike, the source gives them in different places.

Turning to `C[C@H](NC(=O)c1nnn2c1CN(C(=O)Nc1ccc(F)c(F)c1)[C@@H](C)C2)C(F)(F)F` [Example 43, (S)—N^5-(3,4-Difluorophenyl)-6-methyl-N^3—((S)-1,1,1-trifluoropropan-2-yl)-6,7-dihydro-[1,2,3]triazolo[1,5-α]pyrazine-3,5(4-)-dicarboxamide], in data set [1], the “Emax (effect value of the compound to maximally inhibit HBV DNA replication)” value was 99% and a half-maximal effect (EC50) was put at 39 nM. In the data set on HepG2 cells, this molecule registered a 50% cytotoxic concentration (CC50) above 100000 nM.

Consider `C[C@H]1Cn2nnc(C(=O)N[C@H](C)C(F)(F)F)c2CN1C(=O)Nc1ccc(F)c(F)c1` [Example 39, (S)—N^5-(3,4-Difluorophenyl)-6-methyl-N^3-((R)-1,1,1-trifluoropropan-2-yl)-6,7-dihydro-[1,2,3]triazolo[1,5-α]pyrazine-3,5(4H)-dicarboxamide], for which, in data set [1], the “Emax (effect value of the compound to maximally inhibit HBV DNA replication)” value came to 100% and the midpoint of the response, the EC50, lay at 19 nM. Also, the cytotoxic concentration (CC50) in the data set on HepG2 cells (HepG2 cells, 72 hours, CellTiter-Glo, read-out: CC50) is above 100000 nM. Further, in data set [2], the “Area under curve AUC” value was determined as 8105 ± 1585 ng·h/mL, the “Bioavailability (%) F %” value is listed as 114%, the “Clearance CLz/F” value amounted to 4.21 ± 0.69 mL/min/kg and the “Half-life T1/2” value is 6.49 ± 1.71 h. Further, in data set [2], the “Plasma concentration Cmax” value amounted to 682 ± 168 ng/mL and the “Residence time MRT” value is given as 9.82 ± 1.75 h.

Turning to `C[C@H]1Cn2cnc(C(=O)N[C@H](C)C(F)(F)F)c2CN1C(=O)Nc1ccc(F)c(C#N)c1` [Example 11, (S)—N^7-(3-Cyano-4-fluorophenyl)-6-methyl-N^1-((R)-1,1,1-trifluoropropan-2-yl)-5,6-dihydroimidazo[1,5-α]pyrazine-1,7-(8H)-dicarboxamide], in data set [1] (Hepatitis B virus), the EC50 stood at 18 nM and the Emax came to 100%. The same molecule registered a 50% cytotoxic concentration (CC50) at 72 h in data set [3] above 100000 nM. In data set [2], the Vd/F was 2.89 ± 0.389 L/kg, the AUC amounted to 10900 ± 4520 ng·h/mL, the bioavailability is 111% and the CL/F worked out at 3.53 ± 1.5 mL/min/kg. Further, in data set [2], the half-life is 11.2 ± 5.63 h, the Cmax amounted to 597 ± 64 ng/mL and the mean residence time (MRT) came to 16.3 ± 7.6 h.

For `C[C@@H]1CN(C(=O)Nc2ccc(F)c(C#N)c2)Cc2c(C(=O)N[C@H](C)C(F)(F)F)ncn21` [Example 47, (R)—N^7-(3-Cyano-4-fluorophenyl)-5-methyl-N^1-((R)-1,1,1-trifluoropropan-2-yl)-5,6-dihydroimidazo[1,5-α]pyrazine-1,7(8H)-dicarboxamide], in data set [1] (Hepatitis B virus), a half-maximal effect (EC50) was put at 82 nM and the maximal effect (Emax) turned out to be 100%. In addition, in data set [3], the CC50 at 72 h is above 100000 nM. In data set [2], the Vd/F came to 5.69 ± 2.24 L/kg, the AUC was found to be 7260 ± 3050 ng·h/mL, the bioavailability amounted to 125% and the CL/F turned out to be 5.4 ± 2.69 mL/min/kg. Also, in data set [2], the half-life is 13.1 ± 4.3 h, the Cmax is 462 ± 94 ng/mL and the MRT was 17.7 ± 6.3 h.

On to `C[C@@H]1CN(C(=O)Nc2ccc(F)c(F)c2)Cc2c(C(=O)N[C@H](C)C(F)(F)F)nnn21` [Example 42, (R)—N^5-(3,4-Difluorophenyl)-7-methyl-N^3-((R)-1,1,1-trifluoropropan-2-yl)-6,7-dihydro-[1,2,3]triazolo[1,5-α]pyrazine-3,5(4)-dicarboxamide], for which, in data set [1] (Hepatitis B virus), a half-maximal effect (EC50) was put at 75 nM and the maximal response (Emax) was 100%. The molecule also showed a half-maximal cytotoxic concentration (CC50) at 72 h in data set [3] above 100000 nM. Further, in data set [2], the Vd/F was 5.96 ± 1.22 L/kg, the AUC was determined as 7380 ± 3180 ng·h/mL, the bioavailability amounted to 87% and the CL/F stood at 5.3 ± 2.47 mL/min/kg. In data set [2], the half-life is 15.9 ± 8.9 h, the Cmax came to 433 ± 102 ng/mL and the MRT turned out to be 22.1 ± 12.4 h.

On to `C[C@H]1Cn2ncc(C(=O)N[C@H](C)C(F)(F)F)c2CN1C(=O)Nc1ccc(F)c(F)c1` [Example 7, (S)—N^5-(3,4-Difluorophenyl)-6-methyl-N^3-((R)-1,1,1-trifluoropropan-2-yl)-6,7-dihydropyrazolo[1,5-α]pyrazine-3,5(4H)-dicarboxamide], for which, in data set [1] (Hepatitis B virus), the 50% effective concentration (EC50) came out at 38 nM and the Emax worked out at 100%. The molecule also yielded a CC50 at 72 h in data set [3] above 100000 nM. For the same molecule, in data set [2], the Vd/F was 1.65 ± 0.174 L/kg, the area under the curve (AUC) amounted to 16500 ± 9260 ng·h/mL, the bioavailability is 98% and the CL/F was determined as 2.63 ± 1.46 mL/min/kg. For the same molecule, in data set [2], the half-life is 9.72 ± 5.94 h, the Cmax stood at 1080 ± 151 ng/mL and the MRT worked out at 14.1 ± 8 h.

Values taken from US11247998B2, “Piperazine heteroaryl derivative, preparation method therefor and use of same in medicine” (priority 2017, dated 2022).
